The text below walks through data of article PMC5000617, “Antiproliferative and Pro-Apoptotic Effect of Novel Nitro-Substituted Hydroxynaphthanilides on Human Cancer Cell Lines” (International Journal of Molecular Sciences, 2016).

Data set [1] relates to cyclin E1. Put plainly: Western blot of cyclin E1 in MCF-7 cells. Format: cell-based, human. The note with it: MCF-7, 24 h. As for the experimental part: (§1) Additionally, the cell cycle analysis allows determining the presence of a subdiploid cell population as a characteristic marker of cells with fractional DNA content. A significant increase (p < 0.001) of the sub-G1 peak was found only after the treatment with 5 µM of compound 2 in THP-1 cells, where an approximately eight-fold increase was observed compared to the drug-free control (Figure 4).
(§2) For Western blotting, cells were washed with PBS and lysed in lysis buffer (100 mM Tris-HCl, pH = 6.8; 20% glycerol; 1% SDS) containing protease and phosphatase inhibitor cocktails. Protein concentration was measured using Roti®-Quant universal (Carl Roth, Karsruhe, Germany) according to the manufacturer’s instructions. Cell lysates were supplemented with bromophenol blue (final concentration 0.01% (w/v)) and β-mercaptoethanol (final concentration 1% (v/v)) prior to being heated for 5 min at 95 °C. Equal amounts of protein (10 μg) were loaded into a 12% polyacrylamide gel, separated by SDS-polyacrylamide gel electrophoresis and subsequently electrotransferred onto nitrocellulose membranes. Reversible Ponceau S. staining was performed to assess equal sample loading. […] The intensity of bands was semi-quantitatively analysed using the ImageJ software (National Institute of Mental Health, Bethesda, MD, USA).

The test system of data set [2] is MCF-7 cells. The data set can be described thus: Flow cytometric cell cycle analysis (PI), MCF-7. Format: cell-based, human. Particulars: MCF-7, 24 h. As for the experimental part:
(§3) In order to determine at which stage of the cell cycle these compounds induce cell growth inhibition, flow cytometric analyses of cell cycle profiles in THP-1 and MCF-7 cell lines were performed. […] Therefore, THP-1 and MCF-7 cells were treated for 24 h with the compounds at concentrations of 2.5, 5, and 10 μM, respectively. In general, we detected a qualitatively similar effect on the distribution of cells in cell cycle phases following the treatment with compounds 2 and 6 in both leukaemia and breast carcinoma cells. […] This was in concert with a simultaneous decrease in the number of cells observed in the S phase compared to the drug-free control, while the percentage of cells in the G2/M phase remained unchanged.
(§4) THP-1 and sub-confluent MCF-7 cells were treated and subsequently incubated with indicated concentrations of compounds 2 and 6 for 24 h. After the incubation, cells were washed twice in PBS (pH 7.4), fixed in 70% ethanol and stored at −20 °C overnight. Fixed cells were collected by centrifugation, and supernatant was discarded. The cell pellet was washed twice with PBS and incubated with RNaseA (0.02 mg/mL) and 0.05% (v/v) Triton X-100 in PBS for 30 min at 37 °C. After the nuclei staining with propidium iodide (PI) (0.04 mg/mL), the cell cycle distribution was analysed using a flow cytometer Cell Lab Quanta SC (Beckman Coulter, Brea, CA, USA). The quantification of cell cycle distribution was carried out using software MultiCycle AV (Phoenix Flow System, San Diego, CA, USA). A total number of 2 × 10^4 cells was analysed per sample.

For data set [3], the system named is MCF-7 cells. The data set can be described thus: WST-1 cell proliferation assay, MCF-7. Format: cell-based, human. The protocol: (§5) Initially, we examined the effect of six nitro-substituted hydroxynaphthanilides on the proliferation of human leukaemia and breast carcinoma cell lines, using Water Soluble Tetrazolium Salts-1 (WST-1) assay. For such analyses, THP-1 and MCF-7 cells were treated with the compounds at concentrations ranging from 0.5 to 20 μM for 24 h. […] The inhibitory effect of 2 and 6 was statistically significant (p < 0.001) starting from the concentration of 2.5 and 5 μM in THP-1 and MCF-7 cells, respectively. From the concentration-response curves, the IC50 values were determined.
(§6) THP-1 human monocytic leukemia cell line, MCF-7 human breast adenocarcinoma cells and 3T3-L1 mouse embryonic fibroblast were purchased from the European Collection of Cell Cultures (ECACC, Salisbury, UK). Cells were routinely tested for the absence of mycoplasma (Hoechst 33258 staining method). THP-1 cells were maintained in RPMI 1640 culture medium containing 2 mM L-glutamine; MCF-7 and 3T3-L1 cells were cultured in DMEM medium. All of the culture media were supplemented with 10% heat-inactivated FBS and antibiotics (100 U/mL penicillin and 100 μg/mL streptomycin). Cells were maintained at 37 °C in a humidified atmosphere containing 5% CO2.
(§7) Cell proliferation was evaluated using Cell Proliferation Reagent WST-1 (2-(4-iodophenyl)-3-(4-nitrophenyl)-5-(2,4-disulfophenyl)-2H-tetrazolium) (Roche Diagnostics, Mannheim, Germany) according to the manufacturer´s instructions. THP-1 (5 × 10^4 cells/100 μL culture medium per well), MCF-7 cells (1 × 10^4 cells/100 μL per well), and 3T3-L1 (2.5 × 10^3 cells/100 μL per well) were cultured in 96-well plates in triplicate. The measurement was performed using Synergy 2 Multi-Mode Microplate Reader (BioTek, Winooski, VT, USA) after 24 h incubation of cells with tested compounds dissolved in DMSO and subsequently in RPMI 1640 to final concentration ranging 0.5–20 μM in the assays. Cell viability was assessed by dye exclusion test. THP-1 (2 × 10^5 cells/mL per well) and MCF-7 cells (8 × 10^4 cells/mL per well) were incubated in 24-well plates with the indicated concentrations of compounds for 24 h. The number of viable cells was determined using hemocytometer after their staining with a solution of erythrosin B (0.1% erythrosin B (w/v) in PBS). The assays were conducted in triplicate. The IC50 and LC50 values were calculated from fitted concentration-response curves using GraphPad Prism 5.00 software (GraphPad Software, San Diego, CA, USA).

For data set [4], the system named is 3T3-L1 cells. The data set can be described thus: WST-1 cell proliferation assay, 3T3-L1 non-tumour cells. The data set is classed as cell-based, mouse. The protocol: as §6, §7
Data set [5] deals with THP-1 cells. Put plainly: WST-1 cell proliferation assay, THP-1. Format: cell-based, human. The protocol: as §5, §6, §7
In data set [6] the test system is cyclin B1. The data set can be described thus: Western blot of cyclin B1 in MCF-7 cells. The data set is classed as cell-based, human. The note with it: MCF-7, 24 h. As for the experimental part: as §1, §2
The subject of data set [7] is THP-1 cells. Put plainly: Flow cytometric cell cycle analysis (PI), THP-1. Format: cell-based, human. Particulars: THP-1, 24 h. The protocol:
as §3, §4

Data set [8] has as its system THP-1 cells. Put plainly: Erythrosin B dye exclusion viability test, THP-1. Format: cell-based. The protocol:
(§8) Subsequently, for the comparison of the antiproliferative and cytotoxic effects we assessed the cell viability after 24 h treatment with compounds 1–6 in both tumour cell lines using the dye exclusion test.
as §6, §7

Data set [9] in a line: Erythrosin B dye exclusion viability test, THP-1. Format: cell-based. The note with it: human, THP-1 cells; erythrosin B exclusion test, 24 h, mean ± SD; read-out: THP-1 LC50. As for the experimental part: as §8, §6, §7
For data set [10], the system named is MCF-7 cells. Put plainly: Erythrosin B dye exclusion viability test, MCF-7. Format: cell-based. Particulars: MCF-7, 24 h, vs control. As for the experimental part: as §8, §6, §7
The nature of data set [11]: Erythrosin B dye exclusion viability test, MCF-7. Format: cell-based. Particulars: human, MCF-7 cells; erythrosin B exclusion test, 24 h, mean ± SD; read-out: MCF-7 LC50. The protocol:
as §8, §6, §7

For data set [12], the system named is cyclin E1. Put plainly: Western blot of cyclin E1 in THP-1 cells. Format: cell-based, human. The note with it: THP-1, 24 h. The protocol: as §1
For Western blotting, cells were washed with PBS and lysed in lysis buffer (100 mM Tris-HCl, pH = 6.8; 20% glycerol; 1% SDS) containing protease and phosphatase inhibitor cocktails. Protein concentration was measured using Roti®-Quant universal (Carl Roth, Karsruhe, Germany) according to the manufacturer’s instructions. Cell lysates were supplemented with bromophenol blue (final concentration 0.01% (w/v)) and β-mercaptoethanol (final concentration 1% (v/v)) prior to being heated for 5 min at 95 °C. Equal amounts of protein (10 μg) were loaded into a 12% polyacrylamide gel, separated by SDS-polyacrylamide gel electrophoresis and subsequently electrotransferred onto nitrocellulose membranes. Reversible Ponceau S. staining was performed to assess equal sample loading. Then, the membranes were blocked with 5% non-fat dry milk in TBST (10 mM Tris-HCl pH = 7.5, 150 mM NaCl, 0.1% (v/v) Tween-20) and appropriate primary and secondary antibodies were used for immunodetection. The proteins were visualized by ECL Plus reagent according to the manufacturer’s instructions. The intensity of bands was semi-quantitatively analysed using the ImageJ software (National Institute of Mental Health, Bethesda, MD, USA).

Data set [13] has as its system cyclin B1. Put plainly: Western blot of cyclin B1 in THP-1 cells. Format: cell-based, human. The note with it: THP-1, 24 h. As for the experimental part:
as §1, §2

In the case of `O=C(Nc1ccc([N+](=O)[O-])cc1)c1c(O)ccc2ccccc12` [Compound 6, 2-hydroxy-N-(4-nitrophenyl)-naphthalene-1-carboxamide], the “expression of cyclin E1” value in data set [1] and in data set [12] was “dose-dependent decrease in expression of cyclin E1” throughout. Further, the “distribution of cells in cell cycle phases” value in data set [2] and in data set [7] was “induced accumulation of cells in G1 phase” each time. The “sub-G1 / sub-diploid population” value in [2] and in data set [7] was “no significant increase of sub-diploid population” throughout. In addition, the IC50 in data set [3] (Homo sapiens, MCF7, WST-1, 24 h, 0.5-20 μM, mean ± SD) was 5.23 ± 0.802 µM; in [4] (Mus musculus, 3T3-L1, WST-1, 24 h, non-tumour cells, mean ± SD) it was above 20 µM; in data set [5] (Homo sapiens, THP-1, WST-1, 24 h, 0.5-20 μM, mean ± SD), 5.8 ± 0.37 µM. Also, the “effect on cell proliferation” value is “inhibit cell growth in both cell lines in a dose-dependent manner” in data set [3] (MCF-7, 0.5-20 μM, 24 h); “did not decrease cell growth at any of concentrations used” in [4] (3T3-L1, 24 h); “inhibit cell growth in both cell lines in a dose-dependent manner” in data set [5] (THP-1, 0.5-20 μM, 24 h). The “concentration from which the inhibitory effect on proliferation was statistically significant (p < 0.001)” value in [3] (MCF-7, 24 h) is 5 µM; in data set [5] (THP-1, 24 h), 2.5 µM. Besides, the “total protein levels of cyclin B1” value in data set [6] and in [13] was “total protein levels of cyclin B1 were not changed” in each case. In [8], the “LC50 compared to IC50” value was 2–3 fold. The CC50 at 24 h was 9.98 ± 0.349 µM in [9] and above 20 µM in data set [11]. Moreover, in [10], the “effect on cell viability” value is “Neither compound 2 nor 6 reduced cell viability under 50%”. The “levels of cyclin E1 low molecular weight (LMW E1) isoform” value in data set [12] is recorded as “more pronounced reduction of LMW E1 isoform levels”.
